Article PMC9603561, “Anticoagulants as Potential SARS-CoV-2 M^pro Inhibitors for COVID-19 Patients: In Vitro, Molecular Docking, Molecular Dynamics, DFT, and SAR Studies” (International Journal of Molecular Sciences, 2022)
Where two headings read alike, the source gives them in different places.

Assays:
[1] = MTT cytotoxicity assay; format: cell-based; details: African green monkey
Protocol: (§1) Half of the maximal cytotoxic concentrations (CC50) were assessed to obtain the exact concentration of a compound that caused a rupture to 50% of cells after being treated with variant doses from the compounds to calculate the safety index (SI) = CC50/IC50 for each compound. The assay was performed through stock solution preparation of the target compounds in DMSO/ddH2O (for those in powder form). However, those in solution form were used directly. The prepared solutions were further diluted with DMEM by attaining the working solutions. […] Shortly, 96 well-plates were utilized for cell seeding and incubated at 37 °C in 5% CO2 for 24 h afterward. After one day, the incubated cells were subjected to different concentrations in triplicates of the investigated compounds. After another 24 h, the supernatant was dismissed, and sterile 1x phosphate buffer saline (PBS) was used for cell monolayer washing in triplicates. Thus, 20 µL of 5 mg/mL stock solution was added to each well and then incubated at 37 °C, followed by a medium aspiration for 4 h. So, the formed formazan crystals were dissolved by 200 µL isopropyl alcohol or DMSO. The formazan solution absorbance was measured at 540 nm (λmax) using a multi-well plate reader, while the reference wavelength was 620 nm. The CC50 of each target compound was measured employing nonlinear regression analysis of GraphPad Prism software.

[2] = test system: SARS-CoV-2 (hCoV-19/Egypt/NRC-03/2020); assay: Crystal violet assay, SARS-CoV-2 inhibitory assay (cell-based); details: Vero E6 cells, crystal violet CPE readout, read-out: Inhibitory Concentration (IC50) against SARS-CoV-2
[3] = biological target: T1, SARS-CoV-2 M^pro enzyme (Severe acute respiratory syndrome coronavirus 2, UniProt P0DTD1); assay: SARS-CoV-2 M^pro inhibitory assay (3CL Protease Assay Kit); format: biochemical
T1 construct: The 3CL Protease Assay Kit was used; purchased

[4] = test system: Vero E6 cells; assay: MTT cytotoxicity assay; format: cell-based; details: Vero E6 cells, MTT, 24 h treatment; read-out: Cytotoxicity Concentration (CC50)
Protocol: as §1

[5] = Severe acute respiratory syndrome coronavirus 2, Vero C1008, 72 h
[6] = fluorogenic substrate, triplicate

Compound	CC50 at 24 h ([1]; Vero E6 cells, MTT, 24 h treatment, read-out: Cytotoxicity Concentration (CC50)) [µM]	IC50 [2, 5] [µM]	IC50 ([2]; 72 h) [µM]	IC50 [3, 6] [µM]	CC50 at 24 h [1] [µM]	CC50 [4] [µM]	IC50 ([3]; read-out: SARS-CoV-2 M^pro IC50, fluorogenic substrate, triplicate) [µM]
[H]/N=C(/N)c1ccc(NCc2nc3cc(C(=O)N(CCC(=O)O)c4ccccn4)ccc3n2C)cc1 [Dabigatran, dabigatran]	142	9.45	9.4	10.6			
CO[C@H]1O[C@H](COS(=O)(=O)O)[C@@H](O[C@@H]2O[C@@H](C(=O)O)[C@@H](O[C@H]3O[C@H](COS(=O)(=O)O)[C@@H](O[C@@H]4O[C@H](C(=O)O)[C@@H](O[C@H]5O[C@H](COS(=O)(=O)O)[C@@H](O)[C@H](O)[C@H]5NS(=O)(=O)O)[C@H](O)[C@H]4O)[C@H](OS(=O)(=O)O)[C@H]3NS(=O)(=O)O)[C@H](O)[C@H]2OS(=O)(=O)O)[C@H](O)[C@H]1NS(=O)(=O)O [Fondaparinux sodium, fondaparinux sodium]		8.69	8.6	2.36	152		
CCCSc1nc(N[C@@H]2C[C@H]2c2ccc(F)c(F)c2)c2nnn([C@@H]3C[C@H](OCCO)[C@@H](O)[C@H]3O)c2n1 [Ticagrelor, ticagrelor]		5.6		47.5	142		
CCC[C@@]1(CCc2ccccc2)CC(O)=C([C@H](CC)c2cccc(NS(=O)(=O)c3ccc(C(F)(F)F)cn3)c2)C(=O)O1 [tipranavir]				7.38			
heparin			106			262	153
